Results as given in US5741798A, “2-benzyl-4-sulfonyl-4H-isoquinolin-1,3-diones and their use as antiinflammatory agents” (priority 1997, dated 1998).

How the values were obtained:
[1] = molecular target: T1, Human cyclooxygenase 2 (COX-2) (Homo sapiens, UniProt P35354); test: COX-2 inhibition, microsomal assay; conditions: 20 min, read-out: % Inhibition of COX Enzymes in Microsomal Assays, COX-2
T1 sequence (P35354 18-604): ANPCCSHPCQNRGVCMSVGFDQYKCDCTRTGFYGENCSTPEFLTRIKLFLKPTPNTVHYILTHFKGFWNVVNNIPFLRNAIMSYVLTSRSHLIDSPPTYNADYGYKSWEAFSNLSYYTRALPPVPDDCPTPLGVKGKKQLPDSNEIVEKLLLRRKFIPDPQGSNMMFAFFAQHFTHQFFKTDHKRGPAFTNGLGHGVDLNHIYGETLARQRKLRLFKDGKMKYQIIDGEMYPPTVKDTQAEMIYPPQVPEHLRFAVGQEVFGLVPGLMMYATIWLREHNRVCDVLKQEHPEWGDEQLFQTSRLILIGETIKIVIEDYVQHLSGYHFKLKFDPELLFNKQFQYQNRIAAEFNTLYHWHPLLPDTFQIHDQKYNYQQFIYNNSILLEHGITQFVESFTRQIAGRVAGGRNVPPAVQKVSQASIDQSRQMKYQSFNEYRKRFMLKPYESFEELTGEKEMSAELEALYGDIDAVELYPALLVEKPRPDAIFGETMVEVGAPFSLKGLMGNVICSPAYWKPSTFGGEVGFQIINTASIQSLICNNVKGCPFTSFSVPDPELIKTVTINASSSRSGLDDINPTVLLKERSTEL
Method: (§1) Human cyclooxygenase 1 and 2 are expressed in a baculovirus expression system using High 5 insect cells. Microsomal fractions prepared from the cells are stored at -80° C. The assays are performed at room temperature in phosphate buffered saline. After incubating the COX-1 or COX-2 microsomes with hematin (2 μM), phenol (0.5 mM) and reduced glutathione (1 mM) for 5 minutes, inhibitor or DMSO vehicle is added and allowed to incubate for 20 minutes. Arachidonic acid (2 μM) is added and after 20 minutes the reaction is stopped by the addition of HCl (0.1 N HCl final concentration).
(§2) The inhibitory activities against COX-1 and COX-2 of the compounds described in the above Synthetic Examples were determined using the two in vitro assays described above.

human recombinant COX-2 = molecular target: T2, human recombinant COX-2 (Homo sapiens, UniProt P35354); test: COX-2 inhibition, COS cell assay; assay type: cell-based; conditions: COS cells, COX-2; read-out: Inhibition of COX Enzymes in COS Cell Assays, COX-2 IC50
T2 construct: expressed in transfected cells; host or cells: Cos-A2 cells, stably transfected
T2 sequence (P35354 18-604): T1 sequence (P35354 18-604)
Method: (§3) Cos-A2 cells stably transfected with human recombinant COX-1 or COX-2 are cultured in 96 well tissue culture plates with Dulbecco's Modified Eagle Medium supplemented with 10% fetal bovine serum, glutamine (2 mM), penicillin (50 U/mL), streptomycin ([…]) and geneticin (400 μg/mL). Media is removed from confluent monolayers and the cells are washed twice with Hank's buffered saline solution. Fresh HBSS is added, with or without inhibitor, and the cells are incubated for 30 minutes at 37° C. Arachidonic acid (30 μM) is then added and the cells are incubated for an additional one hour at 37° C. Individual experiments represent a mean of triplicate wells for control and inhibitor doses. Supernatents are removed and stored at -80° C. until assayed for PGE2 by EIA (Amersham).
as §2

[2] = test system: Carrageenan-induced paw edema; test: Carrageenan-Induced Paw Edema in Rats; assay type: in vivo, rat; conditions: oral, 30 mg/kg; *p < 0.05
Method: The antiinflammatory activities of two compounds in accordance with the invention (those of Examples 1 and 10) were determined in vivo and compared to those of the known antiinflammatory agents indomethacin and meloxicam, using the Carrageenan-Induced Paw Edema in Rats protocol described by C. A Winter et al. J. Pharmacol. Exp. Ther. 1963, 141, 369. Test compounds were administered orally.

human recombinant COX-1 = molecular target: T3, human recombinant COX-1 (Homo sapiens, UniProt P23219); test: COX-1 inhibition, COS cell assay; assay type: cell-based
T3 construct: expressed in transfected cells; host or cells: Cos-A2 cells, stably transfected
Method: as §3, §2

[3] = molecular target: Human cyclooxygenase 1 (COX-1) (Homo sapiens, UniProt P23219); test: COX-1 inhibition, microsomal assay; conditions: 20 min, read-out: % Inhibition of COX Enzymes in Microsomal Assays, COX-1
Method: as §1, §2

COX-2 = conditions: in words, background; cited from earlier work
[4] = COS, read-out: Inhibition of COX Enzymes in COS Cell Assays, COX-1 % inhibition

T3 sequence (P23219 24-599): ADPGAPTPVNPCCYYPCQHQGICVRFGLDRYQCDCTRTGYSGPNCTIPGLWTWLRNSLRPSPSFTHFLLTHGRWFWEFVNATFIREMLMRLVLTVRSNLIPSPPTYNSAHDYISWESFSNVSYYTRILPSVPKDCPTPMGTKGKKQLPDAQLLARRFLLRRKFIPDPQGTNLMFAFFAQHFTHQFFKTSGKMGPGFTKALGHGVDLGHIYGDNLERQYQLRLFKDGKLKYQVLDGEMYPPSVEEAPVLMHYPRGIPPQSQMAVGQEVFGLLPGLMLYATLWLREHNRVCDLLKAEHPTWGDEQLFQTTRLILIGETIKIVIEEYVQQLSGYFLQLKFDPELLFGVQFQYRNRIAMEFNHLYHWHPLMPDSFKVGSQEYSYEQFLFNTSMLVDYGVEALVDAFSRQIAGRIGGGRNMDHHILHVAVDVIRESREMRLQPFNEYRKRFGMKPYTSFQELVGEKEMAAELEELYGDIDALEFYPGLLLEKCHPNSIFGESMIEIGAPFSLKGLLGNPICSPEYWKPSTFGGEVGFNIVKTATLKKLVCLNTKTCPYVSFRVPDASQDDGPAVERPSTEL
Chain of Human cyclooxygenase 1 (COX-1) (P23219 24-599): as above

IC50 (human recombinant COX-1; COS cells, COX-1, read-out: Inhibition of COX Enzymes in COS Cell Assays, COX-1 IC50) | Compound | inhibition at 0.1 µg/mL [1] | inhibition at 1 µg/mL [1] | inhibition at 10 µg/mL [1] | IC50 (human recombinant COX-2) | Effect of Compounds in Carrageenen Paw Edema in Rats, % Inhibition [2] | inhibition at 0.1 µM (human recombinant COX-1; [4]) | inhibition at 1 µM (human recombinant COX-1; [4]) | inhibition at 10 µM (human recombinant COX-1; [4]) | inhibition at 0.1 µg/mL [3] | inhibition at 1 µg/mL [3] | inhibition at 10 µg/mL [3] | selective inhibition of the COX-2 isoform (COX-2)
 | CC(C)S(=O)(=O)C1C(=O)N(Cc2ccc(F)c(F)c2)C(=O)c2ccc(Cl)cc21 (stereo not drawn) [Example 10] | -3% | 100% | 100% | 100 nM | 38.6% | 20% | 55% | 88% | 13% | 40% | 96% | 
1400 nM | CC(C)S(=O)(=O)C1C(=O)N(Cc2ccccc2)C(=O)c2ccc(Cl)cc21 (stereo not drawn) [Example 1, 2-Benzyl-6-chloro-4-(1-methylethyl)sulfonyl-4H-isoquinolin-1,3-dione] |  |  |  |  | 42.5% |  |  |  | 10% | 34% | 57% | 
 | Cc1cnc(NC(=O)C2=C(O)c3ccccc3S(=O)(=O)N2C)s1 [Meloxicam, reference compound] |  |  |  |  | 56% |  |  |  |  |  |  | more or less selectively inhibit the COX-2 isoform
